This is an account of results in patent publication US10316021B2, “Heteroarylphenoxy benzamide kappa opioid ligands” (Pfizer Inc., priority 2016, dated 2019).

pIC50: −log10 of the molar value. Where two headings read alike, the source gives them in different places.

In series [1] the target is T1, kappa opioid receptor (Mus musculus, UniProt P33534).
T1 construct: from tissue; host or cells: brain of adult male C57BL/6J mice (in vivo)
The series can be described thus: In vivo receptor occupancy (displacement of [3H]GR103545 in brain). As to conditions: subcutaneous dosing; for pIC50: displacement of [3H]GR103545, unbound brain concentration, read-out: Mouse KOR IVRO unbound brain IC50. From the text:
(§1) Adult male C576BL/J6 mice from Jackson Labs (Bar Harbor, Me.) were group housed on individually-vented cage racks, in environmentally-controlled animal quarters (light/dark-6:00 am/6:[…]) for a minimum of 7 days prior to use. For progressive ratio studies, mice were food-restricted to 80-85% of their body weight before testing began. All animal procedures were approved by the Pfizer Inc. IACUC and conducted in accordance with the NIH Guide for the Care and Use of Laboratory Animals.
In Vivo Receptor Occupancy
In vivo receptor occupancy was assessed in adult male C57BL6/J mice. Mice were administered increasing doses (0.001-32 mg/kg s.c.) 30 min prior to administration of the kappa opioid receptor ligand, [^3H]GR103545 (100 μCi/kg, intraorbital). Animals were euthanized 10 min later using cervical dislocation and the brains dissected. One hemisphere was stored at −40° C. for subsequent measurement of compound concentration, the other was homogenized in chilled Tris-HCl buffer (50 mM, pH 7.4; 1:10 w/v) for twenty seconds. Samples of brain homogenate were filtered through 0.3 to 0.5% PEI-soaked GF/B filters, and the filters washed twice with chilled buffer before radioactivity was counted overnight using a scintillation counter. Binding of the ligand in cerebellum was used to determine non-specific binding.
(Displacement assays read how much labelled ligand stays bound in the presence of the test substance.)

Series [2] has as its target T1, kappa opioid receptor. The series can be described thus: Progressive ratio responding (reversal of spiradoline-induced deficit in motivation). As to conditions: co-administered with spiradoline, receptor occupancy measured in a separate group of animals. Type of series: in vivo.
Description: as §1
Progressive Ratio Responding:
Motivation and food-reinforced operant behavior were assessed in the progressive ratio assay. Adult male C576BL/J6 mice were food-restricted to 80-85% of their body weight over a period of one week and kept in their home cages. Mice were trained to nose-poke for a food reward. […] Mice were assessed in a 60 minute session, where the number of rewards obtained was used as a surrogate of the level of motivation. Once mice had reached a stable level of responding, mice were dosed with the kappa opioid receptor agonist, spiradoline (3.2 mg/kg s.c.), to induce a deficit in motivation. Mice were co-administered increasing doses of the kappa opioid receptor antagonists (0.0032-3.2 mg/kg s.c.) to assess their ability to antagonize the spiradoline-induced deficit.

Series [3] in a line: In vitro intrinsic clearance in human liver microsomes. Type of series: in vitro ADME. To be noted: for CLint scaled at 2 μM: human, read-out: HLM CLint. The procedure:
Determination of In Vitro Intrinsic Clearance in Human Liver Microsomes:
Compounds were prepared as solutions in methanol. The final concentration of methanol in the incubation media was 0.2% (v/v). […] The total incubation volume was 1 mL. The reaction mixture was pre-warmed at 37° C. for 2 min before adding NADPH (1.2 mM). Aliquots (75 μL) of the reaction mixture at 0, 5, 10, 15, and 30 min were added to acetonitrile (200 μL) containing internal standard (terfenadine)(0.05 μg/mL), and the samples were centrifuged at 2500 g for 5 min prior to liquid chromatography/tandem mass spectrometry (LC/MS-MS) analysis of each compound using multiple reaction monitoring (MRM). For control experiments, NADPH was omitted from these incubations.
The microsomal half-life (t1/2) was obtained from a log-linear plot of the substrate depletion vs incubation time and was scaled to hepatic intrinsic clearance (CLint) using the following equation, in which the term t1/2 refers to the in vitro half-life: […]

The mark [4] stands for this setting: pH 7.4, human liver microsomal intrinsic clearance.

T1 sequence (P33534 whole entry): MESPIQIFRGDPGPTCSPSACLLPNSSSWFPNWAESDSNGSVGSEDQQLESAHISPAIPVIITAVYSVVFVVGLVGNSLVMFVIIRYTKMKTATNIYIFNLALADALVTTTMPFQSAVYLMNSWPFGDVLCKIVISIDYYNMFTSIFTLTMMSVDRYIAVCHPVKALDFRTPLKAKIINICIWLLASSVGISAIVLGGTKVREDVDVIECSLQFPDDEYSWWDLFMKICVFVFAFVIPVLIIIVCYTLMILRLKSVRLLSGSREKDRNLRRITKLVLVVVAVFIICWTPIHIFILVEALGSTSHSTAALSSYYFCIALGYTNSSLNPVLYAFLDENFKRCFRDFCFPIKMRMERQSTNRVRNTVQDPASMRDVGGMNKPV

On to `Cc1cc(C)cc([C@@H]2CCCN2Cc2ccc(Oc3ccc(C(N)=O)cc3F)cc2)c1` [Comparator E, reference compound], for which, on kappa opioid receptor [1], the “displacement of KOR agonist radioligand binding in the brain, in words” value (from here on “displacement”) is “displaced KOR agonist radioligand ([^3H]GR103545) binding in the brain in an exposure-dependent manner” and the pIC50 was 10.82. The “% KOR IVRO to achieve 50% PR reversal” value at kappa opioid receptor [2] came to 70%. For the same molecule, in series [3] (setting [4]), the CLint scaled at 2 μM was found to be 30 mL/min/kg.

As to `NC(=O)c1ccc(Oc2ccc(CN3CCCC3c3cccnc3)cc2)c(Cl)c1` (centres unmarked) [Comparator C], the “hepatic / metabolic clearance in human liver microsomes, in words” value (from here on “hepatic / metabolic clearance”) in series [3] was “high hepatic clearance”. The CLint scaled at 2 μM in series [3] (setting [4]) was 320 mL/min/kg.

On to `NC(=O)c1ccc(Oc2ccc(CN3CCC[C@H]3c3cccc(F)c3)cc2)c(F)c1` [Comparator F], for which the CLint scaled at 2 μM in series [3] (setting [4]) is 36 mL/min/kg.

As to `COc1nn(C)cc1[C@@H]1CCCN1Cc1ccc(Oc2ccc(C(N)=O)cc2)cc1` (single isomer, unassigned) [Example 12], at kappa opioid receptor [1], the “displacement” value was “displaced KOR agonist radioligand ([^3H]GR103545) binding in the brain in an exposure-dependent manner” and the pIC50 is 8.60. In addition, the “% KOR IVRO to achieve 50% PR reversal” value at kappa opioid receptor [2] is recorded as 30%. Also, in series [3], the “hepatic / metabolic clearance” value is “surprisingly low intrinsic metabolic turnover rates”. Further, the CLint scaled at 2 μM in series [3] (setting [4]) was 8 mL/min/kg. In series [3] (pH 7.4, human liver microsomes), the CLint scaled at 2 μM was below 20 mL/min/kg.

Turning to `NC(=O)c1ccc(Oc2ccc(CN3CCCCC3c3ccccc3)cc2)nc1` (centres unmarked) [Comparator B], in series [3], the “hepatic / metabolic clearance” value is “high hepatic clearance”. In series [3] (setting [4]), the CLint scaled at 2 μM was 89 mL/min/kg.

Turning to `Cc1nn(C)cc1[C@@H]1CCCN1Cc1ccc(Oc2ccc(C(N)=O)cc2)cc1` [Example 11, 4-(4-{[(2S)-2-(1,3-Dimethyl-1H-pyrazol-4-yl)pyrrolidin-1-yl]methyl}phenoxy)benzamide], on kappa opioid receptor [1], the “displacement” value is “displaced KOR agonist radioligand ([^3H]GR103545) binding in the brain in an exposure-dependent manner” and the pIC50 was 8.60. Also, the “% KOR IVRO to achieve 50% PR reversal” value at kappa opioid receptor [2] came to 30%. Further, the “hepatic / metabolic clearance” value in series [3] is listed as “surprisingly low intrinsic metabolic turnover rates”. Moreover, in series [3] (setting [4]), the CLint scaled at 2 μM worked out at 20 mL/min/kg. Further, the CLint scaled at 2 μM in series [3] (pH 7.4, human liver microsomes) is below 20 mL/min/kg.

Take `NC(=O)c1ccc(Oc2ccc(CN3CCCC3c3ccccc3)cc2)nc1` (centres unmarked) [Comparator D]: the CLint scaled at 2 μM in series [3] (setting [4]) turned out to be 45 mL/min/kg.

In the case of `NC(=O)c1ccc(Oc2ccc(CN3CCC(c4ccccc4)C3)cc2)nc1` (centres unmarked) [Comparator A, reference compound], the CLint scaled at 2 μM in series [3] (setting [4]) is 20 mL/min/kg.

For the molecule `COc1nn(C)cc1C1CCCN1Cc1ccc(Oc2ccc(C(N)=O)cc2F)cc1` (single isomer, unassigned; (-)) [Example 8, (−)-3-Fluoro-4-(4-{[2-(3-methoxy-1-methyl-1H-pyrazol-4-yl)pyrrolidin-1-yl]methyl}phenoxy)benzamide], on kappa opioid receptor [1], the “displacement” value was “displaced KOR agonist radioligand ([^3H]GR103545) binding in the brain in an exposure-dependent manner” and the pIC50 is 9.16. In addition, the “% KOR IVRO to achieve 50% PR reversal” value on kappa opioid receptor [2] is reported as 25%. Further, the “hepatic / metabolic clearance” value in series [3] is given as “surprisingly low intrinsic metabolic turnover rates”. For the same molecule, the CLint scaled at 2 μM in series [3] (setting [4]) was 12 mL/min/kg. Besides, the CLint scaled at 2 μM in series [3] (pH 7.4, human liver microsomes) is below 20 mL/min/kg.

A word on the pIC50: it is the IC50 on a negative log10 scale, so that one unit is a factor of ten.
